Measured values reported in patent publication US9809583B2 (priority 2014, dated 2017).

Experiments:
androgen receptor (hAR) [1] = molecular target: T1, androgen receptor (hAR) (Homo sapiens (Human), UniProt P10275); experiment: Test of transcriptional activity (hAR / ARE-Luc dual-luciferase assay in CHO cells); type: cell-based; conditions: EC50 [nM] (mean ± SE), CHO cells with hAR and ARE-Luc, 24 hours; 10 nM DHT = 100%
In short: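 Compound at 0.1˜10,000 nM applied for 24 h to CHO cells carrying transfected human AR and an ARE-driven luciferase reporter. Cells were grown 24 h before transfection; readout was dual-luciferase luminescence.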

castrated male rats = experiment: Efficacy test in castrated male rat (Hershberger assay); type: in vivo, SD (Sprague-Dawley) rat; conditions: castrated male SD rats, oral once a day for 14 days
androgen receptor (hAR) [2] = molecular target: T1, androgen receptor (hAR); experiment: biochemical; type: binding; conditions: 1 nM [3H]MIB, hAR-transfected COS-7 cells, 2 hours; read-out: IC50 [nM] (mean ± SE)
Procedure: In order to examine binding ability of the agonists of the present invention to androgen receptors, the following in-vitro experiment was performed. African green monkey kidney fibroblast-like cell line, COS-7 (ATCC, #CRL-1651) was seeded in a 48-well plate at a density of 2.5×10^4 cells/well, and cultured for 24 hours. Then, a plasmid hAR-mixed medium was added thereto. […] Thereafter, the cells were lysed and the amount of [3H]MIB bound to the intracellular androgen receptors was measured using a radiation dosimeter.

T1 sequence (P10275 whole entry): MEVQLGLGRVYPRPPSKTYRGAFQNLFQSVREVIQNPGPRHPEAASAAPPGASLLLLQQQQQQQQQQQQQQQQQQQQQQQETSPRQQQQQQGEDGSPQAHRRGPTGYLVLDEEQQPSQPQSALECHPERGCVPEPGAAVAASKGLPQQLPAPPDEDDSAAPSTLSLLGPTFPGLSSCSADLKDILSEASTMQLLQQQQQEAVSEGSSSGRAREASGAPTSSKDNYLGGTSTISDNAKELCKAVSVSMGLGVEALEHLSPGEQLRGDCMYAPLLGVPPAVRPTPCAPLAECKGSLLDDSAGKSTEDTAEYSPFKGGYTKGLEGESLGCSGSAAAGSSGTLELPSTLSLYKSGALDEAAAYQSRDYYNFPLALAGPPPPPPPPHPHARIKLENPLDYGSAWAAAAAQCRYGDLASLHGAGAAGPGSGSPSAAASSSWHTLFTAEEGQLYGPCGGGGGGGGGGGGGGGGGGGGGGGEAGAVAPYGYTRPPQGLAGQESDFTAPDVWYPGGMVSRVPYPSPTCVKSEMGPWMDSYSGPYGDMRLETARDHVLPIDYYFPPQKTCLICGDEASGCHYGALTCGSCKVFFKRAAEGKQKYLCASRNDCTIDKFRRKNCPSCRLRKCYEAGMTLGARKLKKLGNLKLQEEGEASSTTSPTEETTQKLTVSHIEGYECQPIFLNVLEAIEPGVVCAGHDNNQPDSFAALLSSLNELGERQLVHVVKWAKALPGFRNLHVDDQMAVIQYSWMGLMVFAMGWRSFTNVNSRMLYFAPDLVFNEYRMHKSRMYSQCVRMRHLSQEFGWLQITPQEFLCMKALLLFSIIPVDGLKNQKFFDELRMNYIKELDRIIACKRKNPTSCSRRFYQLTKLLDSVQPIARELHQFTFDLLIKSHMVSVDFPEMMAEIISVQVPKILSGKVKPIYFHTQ

Question: What does the source list for `CC(=O)Nc1ccc(OC[C@@H]2CN(c3ccc(C#N)c(C(F)(F)F)c3)[C@@H](C(F)(F)F)O2)cc1` [Example 25, N-(4-(((2R,5S)-3-(4-cyano-3-(trifluoromethyl)phenyl)-2-(trifluoromethyl)oxazolidin-5-yl)methoxy)phenyl)acetamide]?
Answer: EC50 (androgen receptor (hAR) [1]): 0.7 nM; levator ani muscle weight % relative to intact control group (castrated male rats; 0.01 mg/kg): 6.7 ± 1.6%; seminal vesicles weight % relative to intact control group (castrated male rats; 0.01 mg/kg): 0.9 ± 0.2%; ventral prostate weight % relative to intact control group (castrated male rats; 0.01 mg/kg): 1.8 ± 0.3%; levator ani muscle weight % relative to intact control group (castrated male rats; 0.03 mg/kg): 8.4 ± 1.5%; seminal vesicles weight % relative to intact control group (castrated male rats; 0.03 mg/kg): 0.7 ± 0.2%; ventral prostate weight % relative to intact control group (castrated male rats; 0.03 mg/kg): 1.0 ± 0.4%; levator ani muscle weight % relative to intact control group (castrated male rats; 0.1 mg/kg): 26.5 ± 5.8%; seminal vesicles weight % relative to intact control group (castrated male rats; 0.1 mg/kg): 0.9 ± 0.2%; ventral prostate weight % relative to intact control group (castrated male rats; 0.1 mg/kg): 3.2 ± 0.9%; levator ani muscle weight % relative to intact control group (castrated male rats; 0.3 mg/kg): 38.5 ± 4.8%; seminal vesicles weight % relative to intact control group (castrated male rats; 0.3 mg/kg): 3.4 ± 0.4%; ventral prostate weight % relative to intact control group (castrated male rats; 0.3 mg/kg): 4.8 ± 1.6%; levator ani muscle weight % relative to intact control group (castrated male rats; 1 mg/kg): 61.1 ± 6.3%; seminal vesicles weight % relative to intact control group (castrated male rats; 1 mg/kg): 4.7 ± 1.2%; ventral prostate weight % relative to intact control group (castrated male rats; 1 mg/kg): 10.9 ± 3.4%; levator ani muscle weight % relative to intact control group (castrated male rats; 3 mg/kg): 79.8 ± 6.7%; seminal vesicles weight % relative to intact control group (castrated male rats; 3 mg/kg): 8.7 ± 1.6%; ventral prostate weight % relative to intact control group (castrated male rats; 3 mg/kg): 12.7 ± 2.5%; IC50 (androgen receptor (hAR) [2]): 8.5 nM
